Experiment [1] has as its target T1, Purified recombinant NBD1 (Homo sapiens, UniProt P13569).
T1 construct: Purified recombinant NBD1 was produced using previously described methods; made in house
The experiment is described as follows: Aggregation analysis using differential static light scattering (DSLS): thermal stability of NBD1. In kind it is binding. The settings on record: NBD1 0.2 mg/ml; Tagg of compound well minus average Tagg of DMSO control wells. The essentials:
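ΔTagg is compound-well aggregation temperature minus the DMSO-control mean, each Tagg being the inflection point of light scattering measured by DSLS during a 1 °C/min ramp up to 70 °C. The protein was purified NBD1 (0.2 mg/ml) in pH 7.6 buffer containing 2 mM ATP, 5 mM MgCl2 and 1% glycerol.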

The test system of experiment [2] is Primary human bronchial epithelial cells from a ΔF508 homozygous CF donor (CF-HBE cells). The experiment is described as follows: TECC24 recording of CFTR-mediated transepithelial chloride transport, AUC fold over benchmark VX-809 @10 μM. The settings on record: 48 hours incubation, AUC of forskolin-stimulated IEQ. In kind it is cell-based. Put shortly:
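Values are the forskolin-to-inhibitor-172 AUC of equivalent Cl− current, derived from transepithelial voltage and resistance, divided by the VX-809 AUC and binned as A <3, B 3–6, C 6–20. Cells were pre-incubated with compound for 48 h at 36.5 °C; the bath (pH 7.4) received benzamil 10 μM, forskolin 10 μM, then CFTRinh-172 20 μM.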

SMILES strings stand for the structures.

T1 sequence (P13569 423-646 limits assumed): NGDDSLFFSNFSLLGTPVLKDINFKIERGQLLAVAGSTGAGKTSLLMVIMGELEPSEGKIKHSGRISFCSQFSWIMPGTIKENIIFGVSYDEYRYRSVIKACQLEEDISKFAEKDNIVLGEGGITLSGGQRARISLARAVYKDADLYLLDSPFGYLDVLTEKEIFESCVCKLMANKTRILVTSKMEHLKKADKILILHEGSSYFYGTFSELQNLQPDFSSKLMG

`CC1(c2ccccc2)CC(=O)NCCCCCc2c(c(F)cc3[nH]ccc23)Oc2ccc(F)c(c2)-c2ncc1[nH]2` (stereo not shown) [Compound 27, 22,28-Difluoro-6-methyl-6-phenyl-24-oxa-3,9,19,30-tetrazapentacyclo[23.3.1.12,5.015,23.016,20]triaconta-1(29),2,4,15,17,20,22,25,27-nonaen-8-one]: in experiment [1], the “DSLS (ΔTagg)” value was “A (an ΔTagg value less than or equal to 5 °C is marked “A”)”. Moreover, in experiment [2], the “TECC (test agent AUC divided by VX-809 AUC)” value is reported as “A (a TECC value less than 3 is marked “A”)”.
For the compound `CN1CC(C)(C)COCC(C)(c2cccc(CCC(=O)O)c2)c2cnc([nH]2)-c2cc(ccc2F)Oc2c(F)cc3[nH]ccc3c2CCC1=O` (single isomer, unassigned) [Compound 20C, 3-[3-(23,29-Difluoro-6,10,10,12-tetramethyl-13-oxo-8,25-dioxa-3,12,20,31-tetrazapentacyclo[24.3.1.12,5.016,24.017,21]hentriaconta-1(30),2,4,16,18,21,23,26,28-nonaen-6-yl)phenyl]propanoic acid], the “DSLS (ΔTagg)” value in experiment [1] is “C (a value greater than 10 °C and less than or equal to 25 °C is marked “C”)”. In addition, the “TECC (test agent AUC divided by VX-809 AUC)” value in experiment [2] was “C (a value between 6 and 20 is marked “C”)”.
In the case of `CNC(=O)CCc1cccc(C2(C)CCCC(C)(C)CN(C)C(=O)CCc3c(c(F)cc4[nH]ccc34)Oc3ccc(F)c(c3)-c3ncc2[nH]3)c1` (single isomer, unassigned) [Compound 53A, 3-[3-(23,29-difluoro-6,10,10,12-tetramethyl-13-oxo-25-oxa-3,12,20,31-tetrazapentacyclo-[24.3.1.12,5.016,24.017,21]hentriaconta-1(30),2,4,16,18,21,23,26,28-nonaen-6-yl)phenyl]-N-methyl-propanamide], the “DSLS (ΔTagg)” value in experiment [1] is “A (an ΔTagg value less than or equal to 5 °C is marked “A”)”. In experiment [2], the “TECC (test agent AUC divided by VX-809 AUC)” value is on record as “A (a TECC value less than 3 is marked “A”)”.
Regarding `Cn1nc2nc1-c1cc(ccc1F)Oc1c(F)cc3[nH]ccc3c1COC(=O)NC(C)(C)COCCC2(C)c1cccc(CCC(=O)O)c1` (single isomer, unassigned) [Compound 100A, 3-[3-(23,29-difluoro-3,6,11,11-tetramethyl-13-oxo-9,14,25-trioxa-3,4,12,20,31-pentazapentacyclo-[24.3.1.12,5.016,24.017,21]hentriaconta-1(30),2(31),4,16,18,21,23,26,28-nonaen-6-yl)phenyl]propanoic acid], the “DSLS (ΔTagg)” value in experiment [1] is “C (a value greater than 10 °C and less than or equal to 25 °C is marked “C”)”. For the same compound, the “TECC (test agent AUC divided by VX-809 AUC)” value in experiment [2] is “C (a value between 6 and 20 is marked “C”)”.
For `CN1CC(C)(C)CCCC(C)(c2cccc(CCC(=O)O)c2)c2cnc([nH]2)-c2cc(ccc2F)Oc2c(F)cc3[nH]ccc3c2CCC1=O` (single isomer, unassigned) [Compound 49B, 3-[3-(23,29-Difluoro-6,10,10,12-tetramethyl-13-oxo-25-oxa-3,12,20,31-tetrazapentacyclo-[24.3.1.12,5.016,24.017,21]-hentriaconta-1(30),2,4,16,18,21,23,26,28-nonaen-6-yl)phenyl]propanoic acid], in experiment [1], the “DSLS (ΔTagg)” value is “C (a value greater than 10 °C and less than or equal to 25 °C is marked “C”)”. The “TECC (test agent AUC divided by VX-809 AUC)” value in experiment [2] is on record as “A (a TECC value less than 3 is marked “A”)”.
For `CN1Cc2c(c(F)cc3[nH]ccc23)Oc2ccc(F)c(c2)-c2ncc([nH]2)C(C)(c2ccccc2)CCCOCC(C)(C)C1=O` (stereo not shown) [Compound 74, 23,29-difluoro-6,12,12,14-tetramethyl-6-phenyl-10,25-dioxa-3,14,20,31-tetrazapentacyclo[24.3.1.12,5.016,24.017,21]hentriaconta-1(30),2,4,16,18,21,23,26,28-nonaen-13-one], the “DSLS (ΔTagg)” value in experiment [1] is “A (an ΔTagg value less than or equal to 5 °C is marked “A”)”. For the same compound, the “TECC (test agent AUC divided by VX-809 AUC)” value in experiment [2] is recorded as “A (a TECC value less than 3 is marked “A”)”.
Consider `CC(Cc1cccc(C2(C)CCCCC(C)(C)NC(=O)OCc3c(c(F)cc4[nH]ccc34)Oc3ccc(F)c(c3)-c3nc2nn3C)c1)C(=O)O` (single isomer, unassigned) [Compound 101B, 3-[3-(23,29-difluoro-3,6,11,11-tetramethyl-13-oxo-14,25-dioxa-3,4,12,20,31-pentazapentacyclo[24.3.1.12,5.016,24.017,21]-hentriaconta-1(30),2(31),4,16,18,21,23,26,28-nonaen-6-yl)phenyl]-2-methyl-propanoic acid], for which, in experiment [1], the “DSLS (ΔTagg)” value was “A (an ΔTagg value less than or equal to 5 °C is marked “A”)”. Further, the “TECC (test agent AUC divided by VX-809 AUC)” value in experiment [2] is listed as “A (a TECC value less than 3 is marked “A”)”.
For the compound `CC1(c2cccc(CCC(=O)O)c2)CCCC2(CC2)CNC(=O)CCc2c(c(F)c(F)c3[nH]ccc23)Oc2ccc(F)c(c2)-c2ncc1[nH]2` (single isomer, unassigned) [Compound 69A, 3-[3-(22,23,29-trifluoro-6-methyl-13-oxo-spiro[25-oxa-3,12,20,31-tetrazapentacyclo-[24.3.1.12,5.016,24.017,21]hentriaconta-1(30),2,4,16,18,21,23,26,28-nonaene-10,1′-cyclopropane]-6-yl)phenyl]propanoic acid], the “DSLS (ΔTagg)” value in experiment [1] was “A (an ΔTagg value less than or equal to 5 °C is marked “A”)”. In addition, the “TECC (test agent AUC divided by VX-809 AUC)” value in experiment [2] was “B (a value between 3 and 6 is marked “B”)”.
For the compound `[2H]C([2H])([2H])n1nc2nc1-c1cc(ccc1F)Oc1c(F)cc3[nH]ccc3c1CCC(=O)N(C)CC(C)(C)CCCC2(C)c1cccc(CCC(=O)O)c1` (single isomer, unassigned) [Compound 77A, 3-[3-[23,29-difluoro-6,10,10,12-tetramethyl-13-oxo-3-(trideuteriomethyl)-25-oxa-3,4,12,20,31-pentazapentacyclo[24.3.1.12,5.016,24.017,21]-hentriaconta-1(30),2(31),4,16,18,21,23,26,28-nonaen-6-yl]phenyl]propanoic acid], in experiment [1], the “DSLS (ΔTagg)” value was “C (a value greater than 10 °C and less than or equal to 25 °C is marked “C”)”. Further, the “TECC (test agent AUC divided by VX-809 AUC)” value in experiment [2] is “C (a value between 6 and 20 is marked “C”)”.
For `CC1(C)CCCCC(C)(c2cccc(CCC(=O)O)c2)c2cnc([nH]2)-c2cc(ccc2F)Oc2c(F)cc3[nH]ccc3c2CCC(=O)NC1` (single isomer, unassigned) [Compound 46A, 3-[3-(24,30-difluoro-6,11,11-trimethyl-14-oxo-26-oxa-3,13,21,32-tetrazapentacyclo[25.3.1.12,5.017,25.018,22]dotriaconta-1(30),2,4,17(25),18(22),19,23,27(31),28-nonaen-6-yl)phenyl]propanoic acid], the “DSLS (ΔTagg)” value in experiment [1] is “A (an ΔTagg value less than or equal to 5 °C is marked “A”)”. Moreover, in experiment [2], the “TECC (test agent AUC divided by VX-809 AUC)” value is listed as “A (a TECC value less than 3 is marked “A”)”.
With `CN1CC(=O)CCCCCC(C)(c2cccc(CCC(=O)O)c2)c2cnc([nH]2)-c2cc(ccc2F)Oc2c(F)cc3[nH]ccc3c2CC1=O` (stereo not shown) [Compound 113, 3-[3-(24,30-Difluoro-6,14-dimethyl-12,15-dioxo-26-oxa-3,14,21,32-tetrazapentacyclo[25.3.1.12,5.017,25.018,22]dotriaconta-1(30),2,4,17(25),18(22),19,23,27(31),28-nonaen-6-yl)phenyl]propanoic acid], in experiment [1], the “DSLS (ΔTagg)” value is “C (a value greater than 10 °C and less than or equal to 25 °C is marked “C”)”. Moreover, the “TECC (test agent AUC divided by VX-809 AUC)” value in experiment [2] is given as “A (a TECC value less than 3 is marked “A”)”.
`CC(Cc1cccc(C2(C)CCCCS(=O)(=O)NC(=O)CCc3c(c(F)cc4[nH]ccc34)Oc3ccc(F)c(c3)-c3nc2nn3C)c1)C(=O)O` (stereo not shown) [Compound 114, 3-[3-(23,29-Difluoro-3,6-dimethyl-11,11,13-trioxo-25-oxa-11λ6-thia-3,4,12,20,31-pentazapentacyclo[24.3.1.12,5.016,24.017,21]hentriaconta-1(30),2(31),4,16,18,21,23,26,28-nonaen-6-yl)phenyl]-2-methyl-propanoic acid]: the “DSLS (ΔTagg)” value in experiment [1] was “C (a value greater than 10 °C and less than or equal to 25 °C is marked “C”)”. Besides, in experiment [2], the “TECC (test agent AUC divided by VX-809 AUC)” value is “A (a TECC value less than 3 is marked “A”)”.
Turning to `CN1Cc2c(c(F)cc3[nH]ccc23)Oc2ccc(F)c(c2)-c2ncc([nH]2)C(C)(c2cccc(CCC(=O)O)c2)CCCOCC(C)(C)C1=O` (stereo not shown) [Compound 73, 3-[3-(23,29-difluoro-6,12,12,14-tetramethyl-13-oxo-10,25-dioxa-3,14,20,31-tetrazapentacyclo[24.3.1.12,5.016,24.017,21]hentriaconta-1(30),2,4,16,18,21,23,26,28-nonaen-6-yl)phenyl]propanoic acid], the “DSLS (ΔTagg)” value in experiment [1] was “C (a value greater than 10 °C and less than or equal to 25 °C is marked “C”)”. The “TECC (test agent AUC divided by VX-809 AUC)” value in experiment [2] is “B (a value between 3 and 6 is marked “B”)”.
With `CN1CC(C)(C)CCC(C)(c2cccc(CCC(=O)O)c2)c2nc(n(C)n2)-c2cc(ccc2F)Oc2c(F)cc3[nH]ccc3c2CCC1=O` (single isomer, unassigned) [Compound 75A, 3-[3-(22,28-difluoro-3,6,9,9,11-pentamethyl-12-oxo-24-oxa-3,4,11,19,30-pentazapentacyclo[23.3.1.12,5.015,23.016,20]triaconta-1(29),2(30),4,15,17,20,22,25,27-nonaen-6-yl)phenyl]propanoic acid], the “DSLS (ΔTagg)” value in experiment [1] is “B (a value above 5 °C and less than or equal to 10 °C is marked “B”)”. Moreover, in experiment [2], the “TECC (test agent AUC divided by VX-809 AUC)” value is “B (a value between 3 and 6 is marked “B”)”.

The values are drawn from US20250197420A1, “MACROCYCLIC COMPOUNDS, COMPOSITIONS, AND METHODS OF USING THEREOF” (Sionna Therapeutics Inc., priority 2022, published 2025).
